This assay concerns Cercospora beticola (CERCBE), leaf spot of sugar beet. The assay can be described thus: Field assessment of Cercospora beticola (CERCBE) in sugar beets. The class given is in vivo. Conditions: for % Control CERCBE (based on AUDPC): sugar beet field, natural infection. The source says: Field Assessment of Cercospora beticola (CERCBE) in Sugar Beets:
A fungicidal treatment containing an EC formulation of compound I by itself and in combination with four adjuvants was sprayed on sugar beet plants (BEAVA, Corvina variety) six times during the course of 7 weeks ([…]) under natural infection with CERCBE. The commercial standard used in the study was difenoconazole (Score) and was applied at 100 g ai/ha. The treatment was part of an experimental trial designed as a randomized complete block with four replications and a plot of approximately 1×2 m. Compound I was applied at water volume of 400 L/ha, using a backpack precision plot sprayer (BKPCKAIR, EVEN FAN TEEJET TP 8004EVS Nozzle, 1 m boom width) and pressurized at 250 kPa.
Disease severity was recorded as a percentage of visual diseased foliage on whole plot. Cercospora leaf spot infection was assessed five times, 6 days after application A (DAAA); 6 DAAC; 12 DAAB; and 7 and 21 DAAF. The disease infection was recorded following EPPO PP 1/1 (4) guideline prescriptions. Area under the disease progress curve (AUDPC) was calculated for each plot using the sets of recorded severity data. Relative AUDPC (% control based on AUDPC) was calculated as percent of the nontreated control.

Molecules are shown by their SMILES.

`N#Cc1ccc(Oc2ccc(C(F)(F)C(O)(Cn3nc[nH]c3=S)c3ccc(F)cc3F)nc2)cc1` (stereo not shown) [Compound I, 4-((6-(2-(2,4-difluorophenyl)-1,1-difluoro-2-hydroxy-3-(5-thioxo-4,5-dihydro-1H-1,2,4-triazol-1-yl)propyl)pyridin-3-yl)oxy)benzonitrile]: the “CERCBE control compared with difenoconazole (statistical)” value (100 g ai/ha in 0.15% Phase II, Ethomeen, Lutensol or Agnique BP-420, ANOVA and Tukey's test (p=0.10)) is “statistically equivalent to that of the commercial standard difenoconazole at 100 g ai/ha”. For the same compound, the “level of control of CERCBE compared with difenoconazole (numerical)” value (100 g ai/ha in Agnique BP-420 (50% EC formulation at 0.3% v/v) or 0.15% Lutensol) was “numerically equivalent to that of difenoconazole at 100 g ai/ha”. In addition, the “fungicidal effect on Cercospora beticola” value (leaf spot of sugar beet, general statement) was “significant fungicidal effect”. Besides, the “% Control CERCBE (based on AUDPC)” value reads like this: (50 g ai/ha, adjuvant Agnique BP-420 (50% w/w at 0.3% v/v)) “B (51-74)”; (50 g ai/ha, no adjuvant) “B (51-74)”; (100 g ai/ha, adjuvant Agnique BP-420 (50% w/w at 0.3% v/v)) “A (75-100)”; (100 g ai/ha, adjuvant Ethomeen T18H (0.15% v/v)) “B (51-74)”; (100 g ai/ha, adjuvant Lutensol TDA 9 (0.15% v/v)) “A (75-100)”; (100 g ai/ha, adjuvant Phase II (0.15% v/v)) “B (51-74)”. For the same compound, the “% Control CERCBE (based on AUDPC)” value (100 g ai/ha, no adjuvant) is “B (51-74)”; the “% Control CERCBE (based on AUDPC)” value (150 g ai/ha, adjuvant Agnique BP-420 (50% w/w at 0.3% v/v)) is “A (75-100)”; the “% Control CERCBE (based on AUDPC)” value (150 g ai/ha, no adjuvant) is “B (51-74)”.

As for `CC1COC(Cn2cncn2)(c2ccc(Oc3ccc(Cl)cc3)cc2Cl)O1` (stereo not shown) [Difenoconazole, difenoconazole, reference compound], the “% Control CERCBE (based on AUDPC)” value (100 g ai/ha, Score (commercial standard)) is reported as “A (75-100)”.
